Data as given in patent publication US9493468B2, “Antifungal 5,6-dihydro-4H-pyrrolo[1,2-a][1,4]benzo-diazepines and 6H-pyrrolo[1,2-a][1,4]benzodiazepines substituted with heterocyclic derivatives” (Janssen Pharmaceutica NV, priority 2011, dated 2016).

Legend:
Format in all cases: cell-based
[1] = test system: Scedosporium apiospermum; test: Antifungal activity in vitro, resazurin growth inhibition: Scedosporium apiospermum (IHEM3817)
Summary of the method: (§1)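 Resazurin conversion to fluorescent resorufin (ex 550/em 590 nm) served as the growth readout. Compounds spanned 2- or 4-fold serial dilutions with 64 μM top in-test concentration; inoculum 10^3 cfu per well in MOPS-buffered RPMI-1640 (pH 7.0, 2% glucose). Incubation species-dependent, dermatophytes at 27° C. for ≥1 week.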

[2] = test system: Sporothrix schenkii; test: Antifungal activity in vitro, resazurin growth inhibition: Sporothrix schenkii (B62482)
Summary of the method: as §1

[3] = test system: Trichophyton rubrum; test: Antifungal activity in vitro, resazurin growth inhibition: Trichophyton rubrum (B68183)
Summary of the method: (§2)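 Broth microdilution: RPMI-1640/L-Gln/2% glucose, MOPS pH 7.0±0.1; 10^3 cfu/well; top concentration 64 μM, 2- or 4-fold steps. Dermatophytes at 27° C., one week or more. Resazurin 0.005% (w/v) added, fluorescence 550/590 nm.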

[4] = test system: Microsporum canis; test: Antifungal activity in vitro, resazurin growth inhibition: Microsporum canis (B68128)
Summary of the method: as §2

[5] = test system: Trichophyton mentagrophytes; test: Antifungal activity in vitro, resazurin growth inhibition: Trichophyton mentagrophytes (B70554)
Summary of the method: as §2

[6] = test system: Cryptococcus neoformans; test: Antifungal activity in vitro, resazurin growth inhibition: Cryptococcus neoformans (B66663)
Summary of the method: as §1

[7] = test system: Aspergillus fumigatus; test: Antifungal activity in vitro, resazurin growth inhibition: Aspergillus fumigatus (B42928)
Summary of the method: as §1

[8] = test system: Candida parapsilosis; test: Antifungal activity in vitro, resazurin growth inhibition: Candida parapsilosis (B66126)
Summary of the method: as §1

[9] = test system: Rhizopus oryzae; test: Antifungal activity in vitro, resazurin growth inhibition: Rhizopus oryzae (IHEM5223)
Summary of the method: as §1

[10] = test system: Rhizomucor miehei; test: Antifungal activity in vitro, resazurin growth inhibition: Rhizomucor miehei (IHEM13391)
Summary of the method: as §1

[11] = test system: Scedosporium prolificans; test: Antifungal activity in vitro, resazurin growth inhibition: Scedosporium prolificans (IHEM21157)
Summary of the method: as §1

Inf. H: Scedosporium apiospermum IHEM3817, pIC50 [1] | Inf. A: Sporothrix schenkii B62482, pIC50 [2] | Inf. C: Trichophyton rubrum B68183, pIC50 [3] | Inf. B: Microsporum canis B68128, pIC50 [4] | Inf. G: Trichophyton mentagrophytes B70554, pIC50 [5] | Inf. F: Cryptococcus neoformans B66663, pIC50 [6] | Inf. E: Aspergillus fumigatus B42928, pIC50 [7] | Inf. D: Candida parapsilosis B66126, pIC50 [8] | Inf. J: Rhizopus oryzae IHEM5223, pIC50 [9] | Inf. K: Rhizomucor miehei IHEM13391, pIC50 [10] | Inf. I: Scedosporium prolificans IHEM21157, pIC50 [11] | SMILES
4.19 | 4.86 | 6.31 | 6.16 | 5.81 | 5.52 | 5.99 | <4.19 | <4.19 | <4.19 | 5.52 | Clc1cc(Cl)c2c(c1)-n1cccc1C(c1cc3ccccc3o1)=NC2 [Compound 120]
5.97 | 6.11 | 6.82 | 6.96 | 6.86 | <4.19 | 5.52 | <4.19 | 5.77 | 5.58 | 6.15 | Clc1ccc2oc(C3=NCc4c(Cl)cccc4-n4cccc43)cc2c1 [Compound 121]
<4.19 | 5.42 | 6.86 | 6.90 | 5.55 | 4.69 | 5.38 | <4.19 | <4.19 | <4.19 | 4.62 | Cc1cccc2c1CN=C(c1cc3cc(Cl)ccc3o1)c1cccn1-2 [Compound 122]
6.02 | 5.04 | 6.96 | 6.75 | 6.23 | 4.98 | 6.25 | <4.19 | <4.19 | 5.14 | 6.44 | Fc1ccc2oc(C3=NCc4c(Cl)cccc4-n4cccc43)cc2c1 [Compound 123]
<4.19 | 5.10 | 6.22 | 5.63 | 5.75 | 6.32 | 6.25 | <4.19 | 5.08 | <4.19 | 5.90 | Fc1ccc2oc(C3=NCc4ccc(Cl)cc4-n4cccc43)cc2c1 [Compound 124]
5.31 | 4.91 | 5.72 | 5.85 | 5.55 | 5.69 | 5.70 | <4.19 | <4.19 | <4.19 | 6.05 | Fc1ccc2oc(C3=NCc4c(Cl)cc(Cl)cc4-n4cccc43)cc2c1 [Compound 125]
5.45 | <4.19 | 6.87 | 6.33 | 6.34 | 5.18 | 6.29 | <4.19 | <4.19 | <4.19 | 6.64 | Clc1cccc2c1CN=C(c1cc3cccc(Cl)c3o1)c1cccn1-2 [Compound 126]
4.80 | <4.19 | 6.94 | 6.44 | 6.40 | 5.22 | 6.31 | <4.19 | <4.19 | <4.19 | 6.64 | Fc1cccc2cc(C3=NCc4c(Cl)cccc4-n4cccc43)oc12 [Compound 127]
<4.19 | <4.19 | 6.87 | 6.02 | 6.30 | 4.69 | 5.99 | <4.19 | <4.19 | <4.19 | 7.10 | Fc1cc(F)c2oc(C3=NCc4c(Cl)cccc4-n4cccc43)cc2c1 [Compound 128]
6.01 | 5.50 | 7.69 | 6.70 | 6.79 | 6.31 | 6.00 | 5.35 | 4.95 | 4.91 | 5.08 | Cc1cccc2cc(C3=NCc4ccccc4-n4cccc43)oc12 [Compound 130]
5.355 | 5.51 | 7.10 | 6.50 | 6.31 | 6.11 | 6.11 | 4.81 | <4.34 | 4.59 | 5.99 | Cc1cccc2c1CN=C(c1cc3cccc(C)c3o1)c1cccn1-2 [Compound 131]
<4.19 | 4.50 | 7.16 | 6.68 | 6.66 | <4.19 | 5.66 | 4.54 | <4.19 | <4.19 | 6.48 | Cc1ccc2oc(C3=NCc4c(Cl)cccc4-n4cccc43)cc2c1 [Compound 134]
5.16 | 5.52 | 7.18 | 6.81 | 6.89 | 5.10 | 6.00 | 4.74 | 4.48 | 4.50 | 6.21 | Cc1ccc2cc(C3=NCc4ccccc4-n4cccc43)oc2c1 [Compound 137]
5.78 | <4.19 | 6.83 | 6.99 | 6.83 | <4.19 | <4.19 | <4.19 | <4.19 | <4.19 | 6.32 | Cc1ccc2cc(C3=NCc4c(Cl)cccc4-n4cccc43)oc2c1 [Compound 138]
5.35 | 6.23 | 7.50 | 6.44 | 6.11 | 4.60 | 5.05 | 4.34 | <4.19 | 4.68 | 6.36 | Cc1ccc2cc(C3=NCc4c(C)cccc4-n4cccc43)oc2c1 [Compound 140]
<4.19 | <4.19 | 6.86 | 6.88 | 7.64 | <4.19 | <4.19 | <4.19 | <4.19 | <4.19 | 5.05 | COc1cccc2cc(C3=NCc4c(Cl)cccc4-n4cccc43)oc12 [Compound 141]
